# Results taken from patent US8574563B2 (Bristol-Myers Squibb Company, priority 2006, dated 2013).
# Read-outs that look alike come from different tables or passages of the source.
# System: HCV 1b-377-neo replicon cells
# Experiment: HCV replicon assay, HCV 1b-377-neo replicon cells (1b FRET)
# Type: cell-based, Hepatitis C virus genotype 1b
# Conditions: HCV 1b-377-neo replicon cells, HCV 1b genotype, read-out: EC50 range against HCV 1b (Table 2, Range)
# Method in brief: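 Compounds tested in HCV genotype 1b-377-neo replicon cells with a FRET read-out. Cells resistant to a reference NS5A inhibitor through a Y2065H NS5A mutation were run alongside wild-type cells.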
SMILES,EC50 (Hepatitis C virus) [pM],EC50 [pM]
"O=C(N[C@@H](C(=O)N1CCC[C@H]1c1ncc(-c2ccc(-c3ccc(-c4cnc([C@@H]5CCCN5C(=O)[C@H]5CCCO5)[nH]4)cc3)cc2)[nH]1)c1ccccc1)N1CCOCC1 [Example 120, N-((1R)-2-oxo-1-phenyl-2-((2S)-2-(5-(4′-(2-((2S)-1-((2R)-tetrahydro-2-furanylcarbonyl)-2-pyrrolidinyl)-1H-imidazol-5-yl)-4-biphenylyl)-1H-imidazol-2-yl)-1-pyrrolidinyl)ethyl)-4-morpholinecarboxamide]",1 to 999,–
"Cn1cncc1C(=O)N[C@@H](C(=O)N1CCC[C@H]1c1ncc(-c2ccc(-c3ccc(-c4c[nH]c([C@@H]5CCCN5C(=O)[C@H]5CCCO5)n4)cc3)cc2)[nH]1)c1ccccc1 [Example 120-5, 1-methyl-N-((1R)-2-oxo-1-phenyl-2-((2S)-2-(5-(4′-(2-((2S)-1-((2R)-tetrahydro-2-furanylcarbonyl)-2-pyrrolidinyl)-1H-imidazol-4-yl)-4-biphenylyl)-1H-imidazol-2-yl)-1-pyrrolidinyl)ethyl)-1H-imidazole-5-carboxamide]",1000 to 99000,–
"CN1CCC[C@H]1C(=O)N[C@@H](C(=O)N1CCC[C@H]1c1ncc(-c2ccc(-c3ccc(-c4c[nH]c([C@@H]5CCCN5C(=O)[C@H]5CCCO5)n4)cc3)cc2)[nH]1)c1ccccc1 [Example 120-6, 1-methyl-N-((1R)-2-oxo-1-phenyl-2-((2S)-2-(5-(4′-(2-((2S)-1-((2R)-tetrahydro-2-furanylcarbonyl)-2-pyrrolidinyl)-1H-imidazol-4-yl)-4-biphenylyl)-1H-imidazol-2-yl)-1-pyrrolidinyl)ethyl)-L-prolinamide]",1000 to 99000,–
"O=C(Cc1cccnc1)N[C@@H](C(=O)N1CCC[C@H]1c1ncc(-c2ccc(-c3ccc(-c4c[nH]c([C@@H]5CCCN5C(=O)[C@H]5CCCO5)n4)cc3)cc2)[nH]1)c1ccccc1 [Example 120-7, N-((1R)-2-oxo-1-phenyl-2-((2S)-2-(5-(4′-(2-((2S)-1-((2R)-tetrahydro-2-furanylcarbonyl)-2-pyrrolidinyl)-1H-imidazol-4-yl)-4-biphenylyl)-1H-imidazol-2-yl)-1-pyrrolidinyl)ethyl)-2-(3-pyridinyl)acetamide]",1 to 999,–
"CN(C)CC(=O)N[C@@H](C(=O)N1CCC[C@H]1c1ncc(-c2ccc(-c3ccc(-c4c[nH]c([C@@H]5CCCN5C(=O)[C@H]5CCCO5)n4)cc3)cc2)[nH]1)c1ccccc1 [Example 120-8, N^2,N^2-dimethyl-N-((1R)-2-oxo-1-phenyl-2-((2S)-2-(5-(4′-(2-((2S)-1-((2R)-tetrahydro-2-furanylcarbonyl)-2-pyrrolidinyl)-1H-imidazol-4-yl)-4-biphenylyl)-1H-imidazol-2-yl)-1-pyrrolidinyl)ethyl) glycinamide]",–,1000 to 99000
"O=C(Nc1cccnc1)N[C@@H](C(=O)N1CCC[C@H]1c1ncc(-c2ccc(-c3ccc(-c4c[nH]c([C@@H]5CCCN5C(=O)[C@H]5CCCO5)n4)cc3)cc2)[nH]1)c1ccccc1 [Example 120-9, 1-((1R)-2-oxo-1-phenyl-2-((2S)-2-(5-(4′-(2-((2S)-1-((2R)-tetrahydro-2-furanylcarbonyl)-2-pyrrolidinyl)-1H-imidazol-4-yl)-4-biphenylyl)-1H-imidazol-2-yl)-1-pyrrolidinyl)ethyl)-3-(3-pyridinyl)urea]",1 to 999,–
Cc1cc(-c2cnc([C@@H]3CCCN3C(=O)[C@@H](c3ccccc3)N(C)C)[nH]2)ccc1-c1ccc(-c2cnc([C@@H]3CCCN3C(=O)[C@@H](c3ccccc3)N(C)C)[nH]2)cc1C [Example 121],1 to 999,–
COC(=O)N[C@@H](C(=O)N1CCC[C@H]1c1ncc(-c2ccc(-c3ccc(-c4cnc([C@@H]5CCCN5C(=O)[C@H](NC(=O)OC)c5ccccc5)[nH]4)cc3C)c(C)c2)[nH]1)c1ccccc1 [Example 122],1 to 999,–
"Cc1cc(-c2cnc([C@@H]3CCCN3C(=O)[C@@H](c3ccccc3)N(C)C)[nH]2)ccc1-c1ccc(-c2cnc([C@@H]3CCCN3C(=O)[C@@H](c3ccccc3)N(C)C)[nH]2)cc1 [Example 123, (1R,1′R)-2,2′-((2-methyl-4,4′-biphenyldiyl)bis(1H-imidazole-5,2-diyl(2S)-2,1-pyrrolidinediyl))bis(N,N-dimethyl-2-oxo-1-phenylethanamine)]",1 to 999,–
"COC(=O)N[C@@H](C(=O)N1CCC[C@H]1c1ncc(-c2ccc(-c3ccc(-c4cnc([C@@H]5CCCN5C(=O)[C@H](NC(=O)OC)c5ccccc5)[nH]4)cc3C)cc2)[nH]1)c1ccccc1 [Example 124, dimethyl ((2-methyl-4,4′-biphenyldiyl)bis(1H-imidazole-5,2-diyl(2S)-2,1-pyrrolidinediyl((1R)-2-oxo-1-phenyl-2,1-ethanediyl)))biscarbamate]",1 to 999,–
"Cc1cc(-c2cnc([C@@H]3CCCN3C(=O)[C@H](O)c3ccccc3)[nH]2)ccc1-c1ccc(-c2cnc([C@@H]3CCCN3C(=O)[C@H](O)c3ccccc3)[nH]2)cc1 [Example 125, (1R,1′R)-2,2′-((2-methyl-4,4′-biphenyldiyl)bis(1H-imidazole-5,2-diyl(2S)-2,1-pyrrolidinediyl))bis(2-oxo-1-phenylethanol)]",1 to 999,–
"COC(=O)N[C@@H](C(=O)N1CCC[C@H]1c1ncc(-c2ccc(-c3ccc(-c4cnc([C@@H]5CCCN5C(=O)[C@@H](c5ccccc5)N(C)C)[nH]4)cc3C)cc2)[nH]1)c1ccccc1 [Example 126, methyl ((1R)-2-((2S)-2-(5-(4′-(2-((2S)-1-((2R)-2-(dimethylamino)-2-phenylacetyl)-2-pyrrolidinyl)-1H-imidazol-5-yl)-2′-methyl-4-biphenylyl)-1H-imidazol-2-yl)-1-pyrrolidinyl)-2-oxo-1-phenylethyl)carbamate]",1 to 999,–
"COC(=O)N[C@@H](C(=O)N1CCC[C@H]1c1ncc(-c2ccc(-c3ccc(-c4cnc([C@@H]5CCCN5C(=O)Cc5cccnc5)[nH]4)cc3C)cc2)[nH]1)c1ccccc1 [Example 127, methyl ((1R)-2-((2S)-2-(5-(2′-methyl-4′-(2-((2S)-1-(3-pyridinylacetyl)-2-pyrrolidinyl)-1H-imidazol-5-yl)-4-biphenylyl)-1H-imidazol-2-yl)-1-pyrrolidinyl)-2-oxo-1-phenylethyl)carbamate]",1 to 999,–
"COC(=O)N[C@@H](C(=O)N1CCC[C@H]1c1ncc(-c2ccc(-c3ccc(-c4cnc([C@@H]5CCCN5C(=O)[C@@H]5CCCO5)[nH]4)cc3C)cc2)[nH]1)c1ccccc1 [Example 128, methyl ((1R)-2-((2S)-2-(5-(2′-methyl-4′-(2-((2S)-1-((2S)-tetrahydro-2-furanylcarbonyl)-2-pyrrolidinyl)-1H-imidazol-5-yl)-4-biphenylyl)-1H-imidazol-2-yl)-1-pyrrolidinyl)-2-oxo-1-phenylethyl)carbamate]",1 to 999,–
"COC(=O)N[C@@H](C(=O)N1CCC[C@H]1c1ncc(-c2ccc(-c3ccc(-c4cnc([C@@H]5CCCN5C(=O)[C@@H](c5ccccc5)N(C)C)[nH]4)cc3C)c(C)c2)[nH]1)c1ccccc1 [Example 129, methyl ((1R)-2-((2S)-2-(5-(4′-(2-((2S)-1-((2R)-2-(dimethylamino)-2-phenylacetyl)-2-pyrrolidinyl)-1H-imidazol-5-yl)-2,2′-dimethyl-4-biphenylyl)-1H-imidazol-2-yl)-1-pyrrolidinyl)-2-oxo-1-phenylethyl)carbamate]",1 to 999,–
CN(C)[C@@H](C(=O)N1CCC[C@H]1c1ncc(-c2ccc(-c3ccc(-c4cnc([C@@H]5CCCN5C(=O)[C@@H](c5ccccc5)N(C)C)[nH]4)cc3C(F)(F)F)cc2)[nH]1)c1ccccc1 [Example 130],1 to 999,–
"COC(=O)N[C@@H](C(=O)N(C)[C@@H](C)c1ncc(-c2ccc(-c3ccc(-c4cnc([C@@H]5CCCN5C(=O)[C@@H](c5ccccc5)N(C)C)[nH]4)cc3)cc2)[nH]1)c1ccccc1 [Example 131.1-1, methyl ((1R)-2-(((1S)-1-(5-(4′-(2-((2S)-1-((2R)-2-(dimethylamino)-2-phenylacetyl)-2-pyrrolidinyl)-1H-imidazol-5-yl)-4-biphenylyl)-1H-imidazol-2-yl)ethyl)(methyl)amino)-2-oxo-1-phenylethyl)carbamate]",1 to 999,–
"COC(=O)N[C@@H](C(=O)N(C)[C@@H](C)c1ncc(-c2ccc(-c3ccc(-c4cnc([C@@H]5CCCN5C(=O)[C@@H](c5ccccc5)N5CCCCC5)[nH]4)cc3)cc2)[nH]1)c1ccccc1 [Example 131.1-2, methyl ((1R)-2-(methyl((1S)-1-(5-(4′-(2-((2S)-1-((2R)-2-phenyl-2-(1-piperidinyl)acetyl)-2-pyrrolidinyl)-1H-imidazol-5-yl)-4-biphenylyl)-1H-imidazol-2-yl)ethyl)amino)-2-oxo-1-phenylethyl)carbamate]",1 to 999,–
O=C([C@@H](c1ccccc1)N1CCCC1)N1CCC[C@H]1c1ncc(-c2ccc(-c3ccc(-c4cnc([C@@H]5CCCN5C(=O)[C@@H](c5ccccc5)N5CCCC5)[nH]4)cc3C(F)(F)F)cc2)[nH]1 [Example 131],1 to 999,–
"CN(C)[C@@H](C(=O)N1CCC[C@H]1c1ncc(-c2ccc(-c3ccc(-c4cnc([C@@H]5CCCN5C(=O)[C@@H](c5ccccc5)N(C)C)[nH]4)cn3)cc2)[nH]1)c1ccccc1 [Example 132, (1R)-2-((2S)-2-(5-(6-(4-(2-((2S)-1-((2R)-2-(dimethylamino)-2-phenylacetyl)-2-pyrrolidinyl)-1H-imidazol-5-yl)phenyl)-3-pyridinyl)-1H-imidazol-2-yl)-1-pyrrolidinyl)-N,N-dimethyl-2-oxo-1-phenylethanamine]",1 to 999,–
"O=C([C@H](O)c1ccccc1)N1CCC[C@H]1c1ncc(-c2ccc(-c3ccc(-c4cnc([C@@H]5CCCN5C(=O)[C@H](O)c5ccccc5)[nH]4)cn3)cc2)[nH]1 [Example 133, (1R)-2-((2S)-2-(5-(6-(4-(2-((2S)-1-((2R)-2-hydroxy-2-phenylacetyl)-2-pyrrolidinyl)-1H-imidazol-5-yl)phenyl)-3-pyridinyl)-1H-imidazol-2-yl)-1-pyrrolidinyl)-2-oxo-1-phenylethanol]",1000 to 99000,–
